# Measured values published in patent publication US6989263B1, “Method for identifying and using compounds that inactivate HIV-1 and other retroviruses by attacking highly conserved zinc fingers in the viral nucleocapsid protein” (The United States of America as represented by the …, priority 1994, dated 2006).
# “Also recorded” adds a separate entry of the source.
# How the values were obtained:
# [1] = target: T1, HIV NC protein in intact virus (Human immunodeficiency virus type 1 group M subtype B, UniProt P05888); experiment: Cross-linking of NC protein in intact HIV (non-reducing gel-mobility shift, western blot); type: biochemical, HIV-1; conditions: for X-link T-½ (min), HIV NC protein (top number): intact HIV generally 12.5 μM, reagent generally 25 μM; for X-link T-½ (min), HIV NC protein: HIV-1 @ 50 μM
# T1 construct: endogenous in cells; host or cells: intact HIV virions
# Text: Purified concentrated retrovirus and antisera against the purified NC protein of the virus can be used to test the ability of a specific compound to penetrate the virus and react with the NC protein by forming disulfide complexes in the core of the virus. The compound is mixed with the whole retrovirus under reaction conditions appropriate for the compound. The virus is then removed from the reagent by centrifugation and disrupted in, e.g, standard SDS-PAGE sample buffer with (reduced) and without (non-reduced) 2-mercaptoethanol. The viral proteins are then separated by standard SDS-PAGE and the sample examined for the presence or absence of the monomeric NC protein in the non-reduced sample. Depending upon the virus used in the experiment and the conditions of electrophoresis, the NC protein can be visualized by protein staining methods, or by immuno-blot (e.g., western) methods. Compounds which react with the NC protein by attacking the zinc finger complexes and forming disulfide cross-linked products (i.e., which generate multimers in the mobility shift assay) inactivate the virus. Thus, compounds of interest (i.e., those which cause cross-linking) reduced the amount of monomeric NC protein detected.
# In order to determine whether HIV-1MN was inactivated by NOBA, the virus was incubated with varying concentrations of NOBA (3.0, 0.3, 0.03 and 0 mM) as in Table 1. The reaction products were pelleted by centrifugation, and separated by SDS-PAGE under reducing (2% 2-mercaptoethanol, panel A), or non-reducing conditions (panel B). p7NC was visualized by immunoblot analysis using monospecific rabbit antisera to the purified NC proteins as per L. E. Henderson et al., J. Virol. 66:1856 (1992).
# Disulfide reagents were further tested for their ability to disrupt NC structure in the virus, based on their ability to cause inter-NC cysteine disulfide bonds (i.e., cross-linking) in the intact virus. The formation of inter-NC cysteine disulfides creates NC multimers, which migrate through a non-reducing gel at a different rate than NC monomers, as described above. Intact HIV virus (generally 12.5 μM) was exposed to the specified reagent (generally 25 μM) for varying lengths of time and electrophoresed through a non-reducing SDS-polyacrylamide gel. HIV NC monomers and multimers were visualized by western blot analysis as described above in Example 3. The approximate time required to cross-link one-half of the NC proteins in the virus at the specified reaction conditions was then determined. […] The top number in the cells of the X-link column in Table 2 refers to the approximate time in minutes required for one-half of the HIV NC proteins to become cross-linked.
# p7NC = target: T2, p7NC (Human immunodeficiency virus type 1 group M subtype B, UniProt P05888); experiment: HPLC analysis of reaction products of purified p7NC with reagent; type: biochemical, HIV-1; set-up: key to Protein (HPLC): reaction products / Protein (HPLC): reaction rate: formation of non-native, intra-protein disulfide links (designated “Disulfides”); some of the reagents form adducts with the cysteine residues as well (designated “Adducts”); slow: “Slow” reactions are those in which greater than 10% of the p7NC protein remained in its native form after the 10 minute incubation with reagent; very slow: “Very slow” reactions are those in which greater than 50% of the p7NC protein remained in its native form after the 10 minute incubation with reagent; fast: “Fast” reactions result in complete transformation of the p7NC protein to non-native conformations during the 10 minute incubation period; conditions: for Protein (HPLC): reaction products / Protein (HPLC): reaction rate: 63 μM p7NC, 6 reagent : 1 protein, 10 minutes
# T2 construct: The NC protein of HIV-1 (MN) p7NC was expressed in E. coli; made in house; host or cells: E. coli (vector pMAL-c)
# Text: Highly purified retroviral NC proteins can be produced by expression from vectors generated through recombinant DNA technology. These proteins when reconstituted with zinc (see, Summers, et al., Protein Science 1:563–567 (1992) for methods), provide the source of the NC proteins containing the zinc fingers that are the targets for attack by the compounds of this invention. When the zinc fingers in NC proteins react with identified compounds, the reaction produces a covalent change in the NC protein, and the modified protein can be separated from the unreacted protein by, for example, reversed phase HPLC.
# Samples of p7NC and apo-p7 were reacted with varying amounts of cupric chloride and resulting products separated by HPLC. The reactions were carried out using 44.3 μM protein (p7NC or apo-p7) in 0.1 M Tris-HCl, pH 7.4, for 6 minutes at room temperature with varying concentrations of CuCl2 to achieve the indicated ratios of reactants, in a final volume of 0.7 ml. Chromatography was carried out on the resulting products at pH 2 (0.05% trifluoroacetic acid) on μBondapak™ C-18 (3.9×300 mm) at 1.0 ml/minute using an acetonitrile gradient (0–17%, 20 ml; 17–20%, 60 ml; 20–60%, 10 ml). Elution positions of unreacted protein (p7NC or apo-p7) are indicated as apo-p7.
# A two-fold excess of NOBA was reacted with p7NC, and the products were separated by HPLC (FIG. 10) as described above for Cu^+2 and p7NC. Elution positions for the reactants (NOBA and unreacted p7NC) and products, reacted p7NC, NOBA, HABA and AzoxyBA are indicated and an elution profile is included in FIG. 10. NOBA and AzoxyBA were supplied by Octamer, Inc. (Mill Valley, Calif.) and used as HPLC standards.
# The disulfide reagent of choice (each available from the Aldrich Chemical Company (Milwaukee, Wis.)) was incubated for 10 minutes with purified p7NC protein (63 μM) at a ratio of 6 molecules of reagent to 1 molecule of NC protein (there are 6 cysteine thiols per NC protein). The formation of non-native protein conformations was monitored by HPLC as described above. […] Generally, the inactivation proceeds by formation of non-native, intra-protein disulfide links (designated “Disulfides”), but some of the reagents form adducts with the cysteine residues as well (designated “Adducts”). “Slow” reactions are those in which greater than 10% of the p7NC protein remained in its native form after the 10 minute incubation with reagent. “Very slow” reactions are those in which greater than 50% of the p7NC protein remained in its native form after the 10 minute incubation with reagent. “Fast” reactions result in complete transformation of the p7NC protein to non-native conformations during the 10 minute incubation period.
# [2] = target: T3, p11 Nucleocapsid Protein (p11NC) (Equine infectious anemia virus, UniProt P69732); experiment: Cross-linking of p11NC in intact EIAV particles (gel-mobility shift); type: biochemical; conditions: intact EIAV (50 μM), 4× the HIV assay concentrations
# T3 construct: a variety of disulfide reagents cross-link the p11NC protein in intact viral particles; endogenous in cells; host or cells: intact EIAV particles
# T3 sequence (P69732 360-435): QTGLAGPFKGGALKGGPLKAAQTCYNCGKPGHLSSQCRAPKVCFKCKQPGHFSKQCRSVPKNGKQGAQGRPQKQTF
# Text: Essentially the same strategy was employed to analyze the ability of the various disulfide reagents to cross-link the p11 Nucleocapsid Protein (p11NC) in intact Equine Infectious Anemia Virus (EIAV) particles. The advantages of working with EIAV include the fact that it is not a human pathogen, and that the p11NC protein can be visualized by simple coomassie-blue staining after performing the gel-mobility shift assay (rather than by western blotting as for HIV) described above. The reaction conditions were essentially the same for the EIAV assays as for the HIV assays described above, except that the concentration of virus and disulfide reagent was 4× the concentrations used in the HIV assay above. The second number in each cell in the X-link column in Table 2 represents the time required to cross-link one-half of the p11NC protein in the intact viral particles. […] The bottom number in each cell of the X-link column, unless otherwise indicated, represents the concentration of EIAV used in the assay. Blank cells throughout Table 2 indicate that the compound has yet to be tested for the specified property.
# [3] = route not given; cited from earlier work
Structure (SMILES),Protein (HPLC): reaction products (p7NC),Protein (HPLC): reaction rate (p7NC),further results
"N#Cc1ccccc1SSc1ccccc1C#N [2,2 Dithiobis(benzonitrile)]",Disulfides; also recorded: Adducts,,"X-link T-½ (min), HIV NC protein (top number) [1]: <<15 min; X-link T-½ (min), EIAV p11NC (second number) [2]: ~15 min"
"c1ccc2sc(SSc3nc4ccccc4s3)nc2c1 [2,2 Dithiobis(benzothiazole)]",Disulfides,,"cross-linking of the HIV-1 NC protein in intact virus (gel-mobility shift), in words [1]: caused a cross-linking of the HIV-1 NC protein; X-link T-½ (min), HIV NC protein [1]: ~60 min; Toxicity (LD-50, mouse) [3]: 7000 mg/kg"
"CC(C)n1cc(C(C)(C)C)nc1SSc1nc(C(C)(C)C)cn1C(C)C [2,2-Dithiobis(4-Tert-Butyl-1-Isopropyl)-Imidazole]",Disulfides,,"X-link T-½ (min), HIV NC protein [1]: >>60 min"
"[O-][n+]1ccccc1SSc1cccc[n+]1[O-] [2,2-Dithiobis(Pyridine N-Oxide)]",Disulfides,,"cross-linking of the HIV-1 NC protein in intact virus (gel-mobility shift), in words [1]: caused a cross-linking of the HIV-1 NC protein; X-link T-½ (min), HIV NC protein (top number) [1]: <<15 min; X-link T-½ (min), EIAV p11NC (second number) [2]: <15 min"
Cc1cc(SSc2cc(C)c3ccccc3n2)nc2ccccc12 [4-Methyl-2-Quinolyl Disulfide],Disulfides; also recorded: Adducts,(slow) (“Slow” reactions are those in which greater than 10% of the p7NC protein remained in its native form after the 10 minute incubation with reagent),
CS(=O)(=O)c1ccc(SSc2ccc(S(C)(=O)=O)cc2[N+](=O)[O-])c([N+](=O)[O-])c1 [4-Methylsulfonyl-2-Nitrophenyl Disulfide],Disulfides,,
O=[N+]([O-])c1ccc(SSc2ccc([N+](=O)[O-])cc2)cc1 [4-Nitrophenyl Disulfide],Disulfides; also recorded: Adducts,(slow) (“Slow” reactions are those in which greater than 10% of the p7NC protein remained in its native form after the 10 minute incubation with reagent),
Cc1ccc(SSc2ccc([N+](=O)[O-])cc2)cc1 [4-Nitrophenyl p-Tolyl Disulfide],Disulfides; also recorded: Adducts,(slow) (“Slow” reactions are those in which greater than 10% of the p7NC protein remained in its native form after the 10 minute incubation with reagent),
"O=C(O)c1cc(SSc2ccc([N+](=O)[O-])c(C(=O)O)c2)ccc1[N+](=O)[O-] [5,5-Dithiobis(2-Nitrobenzoic Acid)]",Disulfides; also recorded: Adducts,(fast),
"O=C(O)c1ccc(SSc2ccc(C(=O)O)cn2)nc1 [6,6-Dithiodinicotinic Acid]",Disulfides; also recorded: Adducts,(slow) (“Slow” reactions are those in which greater than 10% of the p7NC protein remained in its native form after the 10 minute incubation with reagent),"X-link T-½ (min), HIV NC protein [1]: ~60 min"
c1cc(SSc2ccncc2)ccn1 [Aldrithiol-4],Disulfides,,
CSSC(=O)c1ccccc1 [Benzoylmethyl Disulfide],Adducts,,
CC(C)OC(=S)SSC(=S)OC(C)C [Isopropylxanthic Disulfide],Disulfides,,
"CCN1C(=O)C=CC1=O [NEM, N-ethylmaleimide]",,,"reaction with purified p7NC (HPLC), in words (p7NC): form adducts with the p7NC protein"
"CCOC(=S)SSC(=S)OCC [O,O-Diethyl Dithiobis-(Thioformate)]",Disulfides; also recorded: Adducts,,
CC(C)N(C(=S)SSC(=S)N(C(C)C)C(C)C)C(C)C [Tetraisopropylthiuram Disulfide],Disulfides,,"cross-linking of the HIV-1 NC protein in intact virus (gel-mobility shift), in words [1]: caused a cross-linking of the HIV-1 NC protein; X-link T-½ (min), HIV NC protein (top number) [1]: >15 min; X-link T-½ (min), EIAV p11NC (second number) [2]: ~15 min"
Cc1ccc([S+]([O-])[S+]([O-])c2ccc(C)cc2)cc1 (stereo not drawn) [p-Tolyl Disulfoxide],Disulfides,(slow) (“Slow” reactions are those in which greater than 10% of the p7NC protein remained in its native form after the 10 minute incubation with reagent),
